Marks after values point to notes of the source that are not given here.
Tests used:
Assay type in all cases: cell-based, human
[1] = system: platelets; assay: Conventional platelet aggregation in PRP induced by 1 μg/ml collagen; conditions: for Platelet Aggregation (%), Collagen 1 μg/mL: Mean ± SD
Procedure: (§1) The methodology employed was conventional aggregation induced by 5 μM ADP, 1 μg/ml collagen, 10 μM TRAP, whole blood aggregation with 1 μg/ml collagen, Ultegra, and PFA-100 Analyzers, expression of 14 intact, and TRAP-stimulated major receptors by whole blood flow cytometry were utilized to assess platelet activity after preincubation with escalating concentrations of E5555 (20 ng/ml, 50 ng/ml, and 100 ng/ml). The experiments were performed in healthy volunteers, CAD patients treated with ASA, and CAD patients treated with ASA and clopidogrel combination (n=10, for each group).
(§2) An Informed Consent was obtained from all volunteers. Drug users were excluded from data analysis. The study was approved by Quorum Institutional Review Board. All subjects underwent blood sampling after at least 30 minutes of rest and two or more hours of fasting. Blood (28 ml) was drawn between 8 and 10 a.m. in order to avoid any diurnal influence and sampled from an antecubital vein using a 21-gauge butterfly needle containing 3.2% sodium citrate (1:9 volume) after having discarded the first 1.5 ml of free running blood. Four Vacutainer tubes (7.0 ml) were collected for a total of 28 ml of whole blood-citrate mixture from each study participant. Chronologically, blood samples were delivered to the core laboratory facility within 45 minutes after drawing. Then all tubes of blood-citrate mixture were pooled. One portion of pooled blood (5 ml) was kept as an internal control and pretreated with the vehicle. The remaining blood (23 ml) was used for the in vitro exposure to E5555 at concentrations of 20 ng/ml, 50 ng/ml, and 100 ng/ml. […] The platelet aggregation studies, Rapid Analyzers measures, and flow cytometry preparations were initiated within no more than 110 minutes following the blood draw, incubation with the drug, and preparation of the samples.
Platelet counts were determined in each PRP sample with a Coulter Counter ZM (Coulter Co., Hialeah, Fla.). Platelet numbers were adjusted to 3.50×10^8/ml for aggregation using homologous platelet-poor plasma. Platelet aggregation was stimulated with 5 μM ADP, 1 μg/ml collagen, or 10 μM TRAP. All agonists were obtained from Chronolog Corporation (Havertown, Pa.) and Sigma (St. Louis, Miss.). Platelet aggregation experiments were performed using a Chrono-Log Lumi-Aggregometer (model 560-Ca). Aggregation curves were recorded for 4 minutes and analyzed according to internationally established standards using Aggrolink® software. Platelet aggregability was expressed as the percentage of light transmittance change from baseline using platelet-poor plasma as a reference.

[2] = system: platelets; assay: Platelet Function Analyzer PFA-100, ADP/Collagen cartridge; conditions: for Closure time (s): recording limit 300 s
Procedure: as §1, §2
Whole blood aggregation was determined using a Chronolog device 592A. The whole blood-citrate mixture was diluted 1:1 with 0.5 ml phosphate buffered saline and gently swirled. The sample then was allowed to warm to 37° C. for 5 minutes then transferred to the assay well. The electrode was then placed in the cuvette and the sample was stimulated with 1 μg/ml collagen. The change in electrical impedance was digitally recorded. Each whole blood sample was analyzed utilizing 2 different clinical devices: • (1) a Rapid Platelet-Function Assay (Ultegra®) (Accumetrics, Inc., San Diego, Calif.), which is a rapid platelet-function assay aspirin cartridge test with TRAP used as agonist. Polystyrene beads coated with fibrinogen are placed in a cartridge along with the peptide that activates thrombin receptor. Anticoagulated whole blood was added to the cartridge, and agglutination between platelets and coated beads was recorded. The data mirrors turbidimetric platelet aggregation and presumably reflects platelet glycoprotein IIb/IIIa blockade. Ultegra RPFA-TRAP Assay results were reported as Platelet Activation Units (PAU); and • (2) Platelet-Function Analyzer PFA-100 ™ (Dade Behring, Deerfield Ill.), which is a high shear-inducing analyzer that simulates primary hemostasis after injury to a small vessel under flow conditions. The device provides a constant negative pressure that aspirates whole blood, which comes into contact with the collagen, coated membrane and then passes through the aperture. The time required to obtain occlusion of the aperture is digitally recorded. The time to aperture occlusion (the closure time) is recorded in seconds and is inversely related to the degree of shear-induced platelet activation. We used ADP/Collagen cartridges in the index study. Both PFA-100 and Ultegra assays were performed in duplicate. An electronic quality control test was performed on each instrument daily prior to performing any patient samples.

[3] = system: LAMP-1 (CD107a); assay: Unstimulated whole blood flow cytometry, LAMP-1; conditions: for LAMP-1 (CD107a), Mean Fluorescence Intensity: unstimulated, Mean ± SD
Procedure: as §1, §2
(§3) Formation of platelet-leukocyte aggregates was assessed by dual labeling with pan-platelet marker (CD151), and then with CD14, the macrophage receptor for endotoxin lipopolysaccharides (PharMingen, and Coulter, San Diego, Calif., USA). The tubes were then covered with aluminum foil and incubated at 37° C. for 40 minutes with gentle rotation. After incubation, samples were immediately analyzed on a Becton Dickinson FACScan flow cytometer. The instrument was set up to measure forward light scatter, and FITC fluorescence. All parameters were collected using four-decade logarithmic amplification. The data was retrieved in list mode files and then analyzed. P selectin was expressed as percent positive cells. Other antigens were expressed as log mean fluorescence intensity.

[4] = system: P-selectin (CD62p); assay: TRAP-stimulated whole blood flow cytometry, P-selectin; conditions: Mean ± SD
Procedure: as §1, §2, §3
For flow cytometry (TRAP-stimulated) all of the above flow cytometry experiments were identically repeated utilizing prestimulation with 10 μmol/L TRAP for 5 minutes at 37° C. To determine statistics, a Paired Sign Test was used to define significance of differences between vehicle and E5555-treated groups. The Mann-Whitney U test was used to analyze nonparametric data. Normally distributed data were expressed as mean±standard error (m±SE), and skewed data as median (range). All P-values were two sided. All analysis was performed using the SPSS v9.0 program (SPSS Inc., Chicago, Ill.).

[5] = E5555 20 ng/ml, Patients (ASA + C)
[6] = E5555 50 ng/ml, Patients (ASA + C)
[7] = E5555 100 ng/ml, Patients (ASA + C)
[8] = E5555 100 ng/ml, Patients (ASA)

SMILES: Br.CCOc1cc2c(c(F)c1OCC)C(=N)N(CC(=O)c1cc(N3CCOCC3)c(OC)c(C(C)(C)C)c1)C2 [E5555, 1-(3-tert-butyl-4-methoxy-5-morpholinophenyl)-2-(5,6-diethoxy-7-fluoro-1-imino-1,3-dihydro-2H-isoindol-2-yl)ethanone hydrobromide]
- inhibition of platelet activity, aggregation induced by collagen ([1]; ASA-treated patients with coronary artery disease): 10-12%
- collagen-induced aggregation, effect in words ([1]; CAD patients treated with ASA+clopidogrel): moderate inhibition
- Platelet Aggregation (%), Collagen 1 μg/mL ([1]; E5555 20 ng/ml, CAD patients treated with ASA + clopidogrel): 20.6 ± 3.2 %
- Platelet Aggregation (%), Collagen 1 μg/mL ([1]; E5555 20 ng/ml, CAD patients treated with ASA): 23.9 ± 4.8 %
- Platelet Aggregation (%), Collagen 1 μg/mL ([1]; E5555 20 ng/ml, healthy volunteers): 67.6 ± 6.2 %
- Platelet Aggregation (%), Collagen 1 μg/mL ([1]; E5555 50 ng/ml, CAD patients treated with ASA + clopidogrel): 24.0 ± 3.3 %
- Platelet Aggregation (%), Collagen 1 μg/mL ([1]; E5555 50 ng/ml, CAD patients treated with ASA): 26.1 ± 4.0 %
- Platelet Aggregation (%), Collagen 1 μg/mL ([1]; E5555 50 ng/ml, healthy volunteers): 69.1 ± 6.5 %
- Platelet Aggregation (%), Collagen 1 μg/mL ([1]; E5555 100 ng/ml, CAD patients treated with ASA + clopidogrel): 21.7 ± 4.2 %
- Platelet Aggregation (%), Collagen 1 μg/mL ([1]; E5555 100 ng/ml, CAD patients treated with ASA): 25.7 ± 5.2 %
- Platelet Aggregation (%), Collagen 1 μg/mL ([1]; E5555 100 ng/ml, healthy volunteers): 72.8 ± 7.5 %
- inhibition of conventional platelet aggregation induced by collagen ([1]; healthy volunteers, E5555 20, 50, and 100 ng/ml): 15-20%
- inhibition of collagen-induced platelet aggregation in plasma ([1]; overall summary of the study): 10-15%
- Closure time (s) [2, 5]: >300*† s
- Closure time (s) ([2]; E5555 20 ng/ml, Patients (ASA)): >300*† s
- Closure time (s) ([2]; E5555 20 ng/ml, Volunteers): >300*† s
- Closure time (s) [2, 6]: >300*† s
- Closure time (s) ([2]; E5555 50 ng/ml, Patients (ASA)): >300*† s
- Closure time (s) ([2]; E5555 50 ng/ml, Volunteers): >300*† s
- Closure time (s) [2, 7]: >300*† s
- Closure time (s) [2, 8]: >300*† s
- Closure time (s) ([2]; E5555 100 ng/ml, Volunteers): >300*† s
- Platelet Analyzer readings, shear-induced activation, effect in words ([2]; overall summary): reduced shear-induced activation
- LAMP-1, effect in words ([3]; overall summary, stimulation not stated): not affected
- LAMP-1 (CD107a), Mean Fluorescence Intensity [3, 5]: 4.2 ± 1.6 MFI
- LAMP-1 (CD107a), Mean Fluorescence Intensity ([3]; E5555 20 ng/ml, Patients (ASA)): 4.3 ± 1.2 MFI
- LAMP-1 (CD107a), Mean Fluorescence Intensity ([3]; E5555 20 ng/ml, Volunteers): 4.7 ± 0.5 MFI
- LAMP-1 (CD107a), Mean Fluorescence Intensity [3, 6]: 4.7 ± 1.3 MFI
- LAMP-1 (CD107a), Mean Fluorescence Intensity ([3]; E5555 50 ng/ml, Patients (ASA)): 5.0 ± 1.7 MFI
- LAMP-1 (CD107a), Mean Fluorescence Intensity ([3]; E5555 50 ng/ml, Volunteers): 4.6 ± 0.6 MFI
- LAMP-1 (CD107a), Mean Fluorescence Intensity [3, 7]: 4.8 ± 1.4 MFI
- LAMP-1 (CD107a), Mean Fluorescence Intensity [3, 8]: 4.3 ± 1.5 MFI
- LAMP-1 (CD107a), Mean Fluorescence Intensity ([3]; E5555 100 ng/ml, Volunteers): 4.4 ± 1.0 MFI
- P-selectin (CD62p), % positive cells [4, 5]: 11 ± 5 % positive cells
- P-selectin (CD62p), % positive cells ([4]; E5555 20 ng/ml, Patients (ASA)): 22 ± 6 % positive cells
- P-selectin (CD62p), % positive cells ([4]; E5555 20 ng/ml, Volunteers): 31 ± 8 % positive cells
- P-selectin (CD62p), % positive cells [4, 6]: 8 ± 3 % positive cells
- P-selectin (CD62p), % positive cells ([4]; E5555 50 ng/ml, Patients (ASA)): 15 ± 4 % positive cells
- P-selectin (CD62p), % positive cells ([4]; E5555 50 ng/ml, Volunteers): 14 ± 3 % positive cells
- P-selectin (CD62p), % positive cells [4, 7]: 3 ± 1 % positive cells
- P-selectin (CD62p), % positive cells [4, 8]: 8 ± 4 % positive cells
- P-selectin (CD62p), % positive cells ([4]; E5555 100 ng/ml, Volunteers): 11 ± 3 % positive cells

Reference: patent US20100056519A1, “COMPOSITION AND METHOD FOR REDUCING PLATELET ACTIVATION AND FOR THE TREATMENT OF THROMBOTIC EVENTS” (priority 2008, published 2010)
